This note sets out measurements from publication PMC9953885 (Biosensors, 2023).

Where a name gives a salt, the structure may show the parent alone.

The target in this assay is T1, human pancreatic lipase (hPL) (Homo sapiens, UniProt P16233).
T1 construct: gene PNLIP
T1 sequence (P16233 17-465): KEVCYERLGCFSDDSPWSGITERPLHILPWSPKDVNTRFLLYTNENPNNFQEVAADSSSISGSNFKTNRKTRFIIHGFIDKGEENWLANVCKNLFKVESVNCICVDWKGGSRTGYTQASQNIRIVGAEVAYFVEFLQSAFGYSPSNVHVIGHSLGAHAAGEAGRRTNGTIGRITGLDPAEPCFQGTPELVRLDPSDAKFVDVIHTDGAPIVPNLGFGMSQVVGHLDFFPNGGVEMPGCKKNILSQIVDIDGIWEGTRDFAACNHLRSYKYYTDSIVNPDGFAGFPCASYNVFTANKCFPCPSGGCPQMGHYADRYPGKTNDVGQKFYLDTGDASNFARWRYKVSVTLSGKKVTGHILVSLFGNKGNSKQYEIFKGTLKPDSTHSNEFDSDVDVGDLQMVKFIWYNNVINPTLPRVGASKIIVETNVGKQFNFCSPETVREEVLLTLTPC
The settings on record: 10 µM; inhibitor. As for the experimental part: First, we evaluated the inhibitory effect of 94 natural products derived from herbs and 94 drugs on hPL. In our high-throughput screening system, 1 ug/mL hPL was used, and the final concentration of the 94 natural products derived from herbs and 94 drugs used was 10 μM. Other conditions were the same as in the selectivity experiments. […] RLE was incubated with hPL and various enzymes, such as hCES1A, hCES2A, CA, AchE, BchE, 5-HKE, lysozyme, trypsin, thrombin, α-CT, FAP, PREP, pepsin, α-amylase, plasmin, notum and hSA, in a 100 µL incubation mixture consisting of Tris-HCl (pH = 7.4, 25 mM), NaCl (150 mM), CaCl2 (1 mM) and porcine bile salt (0.1 mg/mL) at a concentration of 1.5 µg/mL. The reaction was initiated by adding RLE to the preincubated enzyme mixture at 37 °C, and metabolite formation was determined by measuring the fluorescence intensity of resorufin at 590 nm. In addition, several amino acids (IIe, His, Trp, Val, Leu, Tyr, Ala, Thr, Pro, Asp, Lys, Met, Cys, Ser, Phe, Gly, Glu and Gln), ions (Ni^2+, Ca^2+, Na^+, K^+, Cu^2+, Zn^2+, Mg^2+, NH4^+, Cu^+, Fe^2+ and CN^-) and GSH were measured. The concentration of these interfering factors was 5 μM. […] In this case, a visual high-throughput assay was established to screen hPL inhibitors, using RLE as a fluorogenic substrate in a 96-well microplate.

With `Cc1c(O)c(C)c2c(c1O)C(=O)[C@H](Cc1ccc3c(c1)OCO3)CO2` [Methylophiopogonanone A], the “% of control remaining” value stood at 80.44%. On to `COCCc1ccc(OCC(O)CNC(C)C)cc1` (stereo not drawn) [Metoprolol tartrate], for which the “% of control remaining” value turned out to be 135.23%. The value for `Cc1ncc([N+](=O)[O-])n1CCO` [Metronidazole] was 78.49%; that for `Cc1ncc2n1-c1ccc(Cl)cc1C(c1ccccc1F)=NC2` [Midazolam] was 96.73%. The value for `O=c1c(O)c(-c2ccc(O)cc2O)oc2cc(O)cc(O)c12` [Morin hydrate] was 96.10%; that for `O=c1c(O)c(-c2cc(O)c(O)c(O)c2)oc2cc(O)cc(O)c12` [Myricetin] was 56.43%. For `C[C@@H]1O[C@@H](Oc2c(-c3cc(O)c(O)c(O)c3)oc3cc(O)cc(O)c3c2=O)[C@H](O)[C@H](O)[C@H]1O` [Myricitrin], the “% of control remaining” value amounted to 91.12%. In the case of `COc1ccc2cc([C@H](C)C(=O)O)ccc2c1` [Naproxen] it was 116.02%. Regarding `COCCOC(=O)C1=C(C)NC(C)=C(C(=O)OC(C)C)C1c1cccc([N+](=O)[O-])c1` (stereo not drawn) [Nimodipine], the “% of control remaining” value was determined as 98.69%. In the case of `COC(=O)C1=C(C)NC(C)=C(C(=O)OCC(C)C)C1c1ccccc1[N+](=O)[O-]` (stereo not drawn) [Nisoldipine] it was 75.08%; in that of `CCOC(=O)C1=C(C)NC(C)=C(C(=O)OC)C1c1cccc([N+](=O)[O-])c1` (stereo not drawn) [Nitrendipine], 92.86%. The value for `COc1ccc(-c2cc(=O)c3c(OC)c(OC)c(OC)c(OC)c3o2)cc1OC` [Nobiletin] was 80.44%; that for `CC1(C)OC(=O)C=C[C@]2(C)[C@H]3CC[C@@]4(C)[C@H](c5ccoc5)OC(=O)[C@H]5O[C@]54[C@]3(C)C(=O)C[C@@H]12` [Obacunon] was 79.60%. In the case of `CC1COc2c(N3CCN(C)CC3)c(F)cc3c(=O)c(C(=O)O)cn1c23` (stereo not drawn) [Ofloxacin] it was 87.95%. Regarding `COc1ccc2[nH]c([S+]([O-])Cc3ncc(C)c(OC)c3C)nc2c1` (stereo not drawn) [Omeprazole], the “% of control remaining” value is listed as 94.84%. The value for `C=C1C(=O)[C@]23[C@H](O)[C@H]1CC[C@H]2[C@@]12CO[C@]3(O)[C@@H](O)[C@@H]1C(C)(C)CC[C@@H]2O` [Oridonin] was 66.82%. Turning to `O=c1cc(-c2ccc(O)c(O)c2)oc2c([C@@H]3O[C@H](CO)[C@@H](O)[C@H](O)[C@H]3O)c(O)cc(O)c12` [Orientin], the “% of control remaining” value is given as 76.06%. The value for `CCOC(=O)C1=C[C@@H](OC(CC)CC)[C@H](NC(C)=O)[C@@H](N)C1` [Oseltamivir phosphate] was 101.77%; that for `O=C(O)CCc1nc(-c2ccccc2)c(-c2ccccc2)o1` [Oxaprozin] was 81.83%. The value for `O=C1C=CC[C@@H]2[C@H]3CCC[N+]4([O-])CCC[C@@H](CN12)[C@@H]34` (stereo partly drawn) [Oxysophocarpine] was 98.58%; that for `COc1cc2c(cc1OC)-c1cc3ccc(OC)c(OC)c3c[n+]1CC2` [Palmatine chloride] was 87.01%; that for `O=C(CCc1ccc(O)cc1)c1c(O)cc(O)cc1O` [Phloretin] was 81.23%. The value for `O=C(CCc1ccc(O)cc1)c1c(O)cc(O)cc1O[C@@H]1O[C@H](CO)[C@@H](O)[C@H](O)[C@H]1O` [Phlorizin dihydrate] was 85.09%; that for `COc1c(OC)c2occc2c2oc(=O)ccc12` [Pimpinellin] was 61.25%; that for `O=C1C[C@@H](c2ccccc2)Oc2cc(O)cc(O)c21` [Pinocembrin] was 91.25%. Regarding `C[C@@H]1O[C@@H](O[C@H]2[C@H](OC(=O)[C@]34CCC(C)(C)C[C@H]3C3=CC[C@@H]5[C@@]6(C)C[C@H](O)[C@H](O[C@@H]7O[C@H](CO)[C@@H](O)[C@H](O)[C@H]7O)C(CO)(CO)[C@@H]6CC[C@@]5(C)[C@]3(C)C[C@H]4O)OC[C@H](O)[C@@H]2O)[C@H](O)[C@H](O)[C@H]1O[C@@H]1OC[C@@H](O)[C@H](O[C@@H]2OC[C@](O)(CO)[C@H]2O)[C@H]1O` [Platycodin D], the “% of control remaining” value is listed as 89.14%. In the case of `C/C=C(/C)C(=O)O[C@H]1[C@@H](OC(=O)CC(C)C)c2c(ccc3ccc(=O)oc23)OC1(C)C` [Praeruptorin E] it was 87.81%; in that of `C[C@]12C=CC(=O)C=C1CC[C@@H]1[C@@H]2[C@@H](O)C[C@@]2(C)[C@H]1CC[C@]2(O)C(=O)CO` [Prednisolone], 82.34%; in that of `CCCN(CCC)S(=O)(=O)c1ccc(C(=O)O)cc1` [Probenecid], 93.75%. In the case of `Oc1cc(O)c2c(c1)OC(c1ccc(O)c(O)c1)C(OC1(c3ccc(O)c(O)c3)Oc3cc(O)cc(O)c3C(O)C1O)C2` (stereo not drawn) [Procyanidin] it was 5.72%. In the case of `O=c1c(O)c(-c2ccc(O)c(O)c2)oc2cc(O)cc(O)c12` [Quercetin] it was 47.29%; in that of `C=C[C@H]1CN2CC[C@H]1C[C@@H]2[C@@H](O)c1ccnc2ccc(OC)cc12` [Quinidine], 100.77%. For the molecule `CCC(CC)COC(=O)[C@H](C)N[P@](=O)(OC[C@H]1O[C@@](C#N)(c2ccc3c(N)ncnn23)[C@H](O)[C@@H]1O)Oc1ccccc1` [Remdesivir], the “% of control remaining” value stood at 98.67%. In the case of `COC(=O)[C@H]1[C@H]2C[C@@H]3c4[nH]c5cc(OC)ccc5c4CCN3C[C@H]2C[C@@H](OC(=O)c2cc(OC)c(OC)c(OC)c2)[C@@H]1OC` [Reserpine] it was 94.24%; in that of `CC(C)c1nc(CN(C)C(=O)N[C@H](C(=O)N[C@@H](Cc2ccccc2)C[C@H](O)[C@H](Cc2ccccc2)NC(=O)OCc2cncs2)C(C)C)cs1` [Ritonavir], 97.04%. In the case of `O=C(NC[C@H]1CN(c2ccc(N3CCOCC3=O)cc2)C(=O)O1)c1ccc(Cl)s1` [Rivaroxaban] it was 118.66%.

`COc1ccc(-c2cc(=O)c3c(O)c(OC)c(OC)cc3o2)cc1` [Salvigenin]: the “% of control remaining” value is 75.70%. The value for `Oc1ccc2c(c1)OCO2` [Sesamol] was 103.95%; that for `CC(C)=CC[C@@H](O)C1=CC(=O)c2c(O)ccc(O)c2C1=O` [Shikonin] was 107.55%; that for `CCC(C)(C)C(=O)O[C@H]1C[C@@H](C)C=C2C=C[C@H](C)[C@H](CC[C@@H]3C[C@@H](O)CC(=O)O3)[C@H]21` [Simvastatin] was 84.18%. The value for `COC1=C[C@@H]2[C@@H]3Cc4ccc(OC)c(O)c4[C@]2(CCN3C)CC1=O` [Sinomenine] was 101.42%; that for `CC1(C)[C@H](C(=O)O)N2C(=O)C[C@H]2S1(=O)=O` [Sulbactam sodium] was 88.89%. The value for `Cc1cc(NS(=O)(=O)c2ccc(N)cc2)no1` [Sulfamethoxazole] was 98.83%; that for `O=C1c2c(O)cc(O)cc2O[C@H](c2ccc(O)c(O)c2)[C@H]1O` [TGaxifolin] was 97.17%; that for `CC(C)OC(=O)OCOP(=O)(CO[C@H](C)Cn1cnc2c(N)ncnc21)OCOC(=O)OC(C)C` [Tenofovir disoproxil] was 91.86%.
